# Measurements taken from patent publication US11420958B2, “Aryl and heteroaryl substituted indole compounds” (BRISTOL-MYERS SQUIBB COMPANY, priority 2017, dated 2022).
# How the values were obtained:
# Format in all cases: cell-based
# human TLR7 = human TLR7 (Homo sapiens (Human), UniProt Q9NYK1); assay: TLR7 inhibition reporter assay (HEK-Blue, SEAP); conditions: HEK-Blue cells overexpressing human TLR7, gardiquimod 7.5 μM stimulation
# In short: (§1)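 Reporter cells, NF-κB/AP-1-driven SEAP; cmpd 0.05 nM–50 μM final, 30 min RT pre-treat; stim gardiquimod 7.5 μM (TLR7), R848 15.9 μM (TLR8), ODN2006 5 nM (TLR9); 22 h 37 °C; % inhibition of SEAP signal.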
# human TLR8 = human TLR8 (Homo sapiens (Human), UniProt Q9NR97); assay: TLR8 inhibition reporter assay (HEK-Blue, SEAP); conditions: HEK-Blue cells overexpressing human TLR8, R848 15.9 μM stimulation
# Sequence of human TLR8 (Q9NR97 27-1041): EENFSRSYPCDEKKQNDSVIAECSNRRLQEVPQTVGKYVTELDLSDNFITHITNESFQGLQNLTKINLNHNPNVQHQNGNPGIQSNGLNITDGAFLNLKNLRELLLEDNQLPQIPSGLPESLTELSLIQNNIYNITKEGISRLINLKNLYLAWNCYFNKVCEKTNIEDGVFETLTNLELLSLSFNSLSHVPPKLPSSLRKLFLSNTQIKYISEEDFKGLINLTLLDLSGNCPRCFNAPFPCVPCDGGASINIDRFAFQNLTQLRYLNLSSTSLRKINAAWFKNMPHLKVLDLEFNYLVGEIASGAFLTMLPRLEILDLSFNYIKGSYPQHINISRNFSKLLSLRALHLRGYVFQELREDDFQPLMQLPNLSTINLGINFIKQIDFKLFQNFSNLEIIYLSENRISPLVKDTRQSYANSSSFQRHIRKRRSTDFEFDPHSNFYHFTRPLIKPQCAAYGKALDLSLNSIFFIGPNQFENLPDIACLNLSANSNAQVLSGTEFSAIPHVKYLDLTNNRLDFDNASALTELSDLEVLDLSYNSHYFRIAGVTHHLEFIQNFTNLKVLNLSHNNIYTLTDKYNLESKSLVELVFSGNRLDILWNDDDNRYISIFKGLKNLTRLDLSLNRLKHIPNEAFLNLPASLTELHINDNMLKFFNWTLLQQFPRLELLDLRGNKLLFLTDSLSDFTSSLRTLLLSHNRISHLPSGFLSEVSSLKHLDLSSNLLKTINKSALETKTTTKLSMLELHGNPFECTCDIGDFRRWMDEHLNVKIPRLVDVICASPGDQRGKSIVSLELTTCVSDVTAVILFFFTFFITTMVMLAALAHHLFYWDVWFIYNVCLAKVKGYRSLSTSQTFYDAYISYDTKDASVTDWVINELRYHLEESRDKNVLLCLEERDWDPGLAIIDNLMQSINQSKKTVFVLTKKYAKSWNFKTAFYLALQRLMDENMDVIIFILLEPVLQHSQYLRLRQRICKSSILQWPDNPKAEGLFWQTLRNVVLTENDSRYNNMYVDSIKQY
# In short: as §1
# human TLR9 = human TLR9 (Homo sapiens (Human), UniProt Q9NR96); assay: TLR9 inhibition reporter assay (HEK-Blue, SEAP); conditions: HEK-Blue cells overexpressing human TLR9, ODN2006 5 nM stimulation
# Sequence of human TLR9 (Q9NR96 26-1032): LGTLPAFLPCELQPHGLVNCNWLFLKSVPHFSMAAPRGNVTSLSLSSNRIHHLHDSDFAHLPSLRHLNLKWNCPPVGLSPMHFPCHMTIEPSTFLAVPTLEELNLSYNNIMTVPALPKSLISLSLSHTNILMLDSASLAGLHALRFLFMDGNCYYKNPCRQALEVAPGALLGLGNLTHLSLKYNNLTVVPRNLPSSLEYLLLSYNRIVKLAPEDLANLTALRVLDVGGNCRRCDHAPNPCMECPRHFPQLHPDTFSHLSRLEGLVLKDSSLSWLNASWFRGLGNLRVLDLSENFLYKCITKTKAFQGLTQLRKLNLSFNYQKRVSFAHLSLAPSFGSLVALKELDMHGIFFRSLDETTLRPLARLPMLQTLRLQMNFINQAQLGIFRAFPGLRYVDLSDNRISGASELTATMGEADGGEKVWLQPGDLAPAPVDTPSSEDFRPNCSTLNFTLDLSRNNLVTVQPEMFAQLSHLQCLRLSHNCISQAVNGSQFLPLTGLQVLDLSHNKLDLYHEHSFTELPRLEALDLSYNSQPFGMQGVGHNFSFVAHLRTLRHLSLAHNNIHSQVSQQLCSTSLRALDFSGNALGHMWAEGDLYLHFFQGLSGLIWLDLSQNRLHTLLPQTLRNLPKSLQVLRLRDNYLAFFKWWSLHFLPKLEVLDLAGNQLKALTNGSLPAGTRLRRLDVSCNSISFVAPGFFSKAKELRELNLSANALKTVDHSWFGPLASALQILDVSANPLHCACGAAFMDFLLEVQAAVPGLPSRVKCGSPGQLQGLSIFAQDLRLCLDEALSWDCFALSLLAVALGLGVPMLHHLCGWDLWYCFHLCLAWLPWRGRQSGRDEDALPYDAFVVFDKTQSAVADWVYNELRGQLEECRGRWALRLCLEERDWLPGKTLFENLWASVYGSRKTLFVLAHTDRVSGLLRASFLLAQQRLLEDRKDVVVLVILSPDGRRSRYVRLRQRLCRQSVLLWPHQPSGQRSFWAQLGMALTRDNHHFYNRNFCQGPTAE
# In short: as §1
# Sequence of human TLR7 (Q9NYK1 27-1049): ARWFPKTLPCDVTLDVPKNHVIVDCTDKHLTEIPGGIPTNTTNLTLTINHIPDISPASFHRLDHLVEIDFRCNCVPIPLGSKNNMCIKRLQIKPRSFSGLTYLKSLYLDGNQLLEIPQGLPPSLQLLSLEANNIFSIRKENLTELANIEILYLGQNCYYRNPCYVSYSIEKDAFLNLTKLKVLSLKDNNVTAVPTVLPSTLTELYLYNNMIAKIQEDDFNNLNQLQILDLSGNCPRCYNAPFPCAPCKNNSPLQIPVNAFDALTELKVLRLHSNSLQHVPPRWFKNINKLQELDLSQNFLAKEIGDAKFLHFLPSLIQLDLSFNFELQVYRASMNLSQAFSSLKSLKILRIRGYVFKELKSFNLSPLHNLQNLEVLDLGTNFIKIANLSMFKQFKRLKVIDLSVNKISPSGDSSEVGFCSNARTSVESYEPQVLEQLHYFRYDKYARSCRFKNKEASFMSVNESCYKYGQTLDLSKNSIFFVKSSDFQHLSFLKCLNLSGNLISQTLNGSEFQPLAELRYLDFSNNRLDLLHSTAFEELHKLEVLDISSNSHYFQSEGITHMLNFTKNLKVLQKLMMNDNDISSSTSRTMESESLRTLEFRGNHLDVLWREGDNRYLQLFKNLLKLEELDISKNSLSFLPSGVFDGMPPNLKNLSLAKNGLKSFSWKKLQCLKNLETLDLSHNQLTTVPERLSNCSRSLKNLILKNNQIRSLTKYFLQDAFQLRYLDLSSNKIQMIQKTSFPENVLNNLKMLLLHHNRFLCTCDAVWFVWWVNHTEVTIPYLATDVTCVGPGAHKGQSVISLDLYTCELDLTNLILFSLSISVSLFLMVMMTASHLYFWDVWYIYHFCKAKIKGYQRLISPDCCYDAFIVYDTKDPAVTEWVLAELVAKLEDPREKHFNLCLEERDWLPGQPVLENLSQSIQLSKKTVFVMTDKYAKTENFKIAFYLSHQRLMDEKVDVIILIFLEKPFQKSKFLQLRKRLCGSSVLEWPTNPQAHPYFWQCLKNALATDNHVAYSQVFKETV
IC50 (human TLR7) [nM],IC50 (human TLR8) [nM],IC50 (human TLR9) [nM],Structure (SMILES)
0.37,0.6,673,"Cc1cc(-c2[nH]c3ccc(-c4nnc(C5CCN(C)CC5)o4)cc3c2C(C)C)cn2ncnc12 [Example 367, 2-(3-isopropyl-2-(8-methyl-[1,2,4]triazolo[1,5-a]pyridin-6-yl)-1H-indol-5-yl)-5-(1-methylpiperidin-4-yl)-1,3,4-oxadiazole]"
37,4.9,1100,"Cc1cc(-c2[nH]c3ccc(-c4cnc(C5CCNCC5)s4)cc3c2C(C)C)ccn1 [Example 199, 5-(3-isopropyl-2-(2-methylpyridin-4-yl)-1H-indol-5-yl)-2-(piperidin-4-yl)thiazole]"
703,213,> 50000,"C#CCN(C)Cc1nnc(-c2ccc3[nH]c(-c4ccc(OC)c(OC)c4)c(C(C)C)c3c2)o1 [Example 123, N-((5-(2-(3,4-dimethoxyphenyl)-3-isopropyl-1H-indol-5-yl)-1,3,4-oxadiazol-2-yl)methyl)-N-methylprop-2-yn-1-amine]"
53,14,44300,"Cc1cc(-c2[nH]c3ccc(-c4nnc(N)o4)cc3c2C(C)C)ccn1 [Example 174, 5-(3-isopropyl-2-(2-methylpyridin-4-yl)-1H-indol-5-yl)-1,3,4-oxadiazol-2-amine]"
277,83,6970,"Cc1cc(-c2[nH]c3ccc(-c4nnc(C5CCNCC5)[nH]4)cc3c2C(C)C)ccn1 [Example 196, 3-isopropyl-2-(2-methylpyridin-4-yl)-5-(5-(piperidin-4-yl)-4H-1,2,4-triazol-3-yl)-1H-indole]"
45,22,304,"Cc1cc(-c2[nH]c3ccc(-c4ccc(N5CCN(C)CC5)nc4)cc3c2C(C)C)ccn1 [Example 253, 3-isopropyl-5-(6-(4-methylpiperazin-1-yl)pyridin-3-yl)-2-(2-methylpyridin-4-yl)-1H-indole]"
284,47,29500,"CC(C)c1c(-c2ccnc(N)c2)[nH]c2ccc(-c3nnc(C(=O)N(C)C)o3)cc12 [Example 166, 5-(2-(2-aminopyridin-4-yl)-3-isopropyl-H-indol-5-yl)-N,N-dimethyl-1,3,4-oxadiazole-2-carboxamide]"
6.6,6.9,592,"Cc1cc(-c2[nH]c3ccc(-c4cn5cc(C)nc5cc4C)cc3c2C(C)C)cc(C)n1 [Example 347, 6-(2-(2,6-dimethylpyridin-4-yl)-3-isopropyl-1H-indol-5-yl)-2,7-dimethylimidazo[1,2-a]pyridine]"
7.7,26,> 50000,"Cc1cc(-c2[nH]c3ccc(-c4ccc(C(N)=O)nc4)cc3c2C(C)C)cc(C)n1 [Example 317, 5-(2-(2,6-dimethylpyridin-4-yl)-3-isopropyl-1H-indol-5-yl)picolinamide]"
244,57,316,"CNCCN1CCC(c2nnc(-c3ccc4[nH]c(-c5ccc(OC)c(OC)c5)c(CC(F)(F)F)c4c3)o2)CC1 [Example 67, 2-(4-(5-(2-(3,4-dimethoxyphenyl)-3-(2,2,2-trifluoroethyl)-1H-indol-5-yl)-1,3,4-oxadiazol-2-yl)piperidin-1-yl)-N-methylethan-1-amine]"
107,9,2060,"COc1ccc(-c2[nH]c3ccc(-c4cccc(C(=O)N5CCNCC5)c4)cc3c2C(C)C)cc1OC [Example 1, 2-(3,4-dimethoxyphenyl)-5-[3-(piperazine-1-carbonyl)phenyl]-3-(propan-2-yl)-1H-indole]"
4.9,1.6,157,"Cc1cc(-c2[nH]c3ccc(-c4nnc(C5CCCN(C(C)C)C5)[nH]4)cc3c2C(C)C)cc(C)n1 (stereo not drawn) [Example 358, 2-(2,6-dimethylpyridin-4-yl)-3-isopropyl-5-(5-(1-isopropylpiperidin-3-yl)-4H-1,2,4-triazol-3-yl)-1H-indole]"
228,11,686,"CCc1c(-c2ccnc(C)c2)[nH]c2ccc(-c3noc(C4CCCNC4)n3)cc12 (stereo not drawn) [Example 457, 3-(3-ethyl-2-(2-methylpyridin-4-yl)-1H-indol-5-yl)-5-(piperidin-3-yl)-1,2,4-oxadiazole]"
72,16,2380,Cc1cc(-c2[nH]c3ccc(-c4nc(C(=O)N[C@H]5CC[C@H](N)CC5)co4)cc3c2C(C)C)cc(C)n1 [Example 282]
74,5.5,824,"Cc1cc(-c2[nH]c3ccc(-c4ccnc(N5CCN(C)CC5)c4)cc3c2C(C)C)ccn1 [Example 269, 3-isopropyl-5-(2-(4-methylpiperazin-1-yl)pyridin-4-yl)-2-(2-methylpyridin-4-yl)-1H-indole]"
38,0.5,781,"Cc1cc(-c2[nH]c3ccc(-c4nnc([C@@H]5CCCC[C@@H]5N)o4)cc3c2C(C)C)ccn1 [Example 266, (1S,2R)-2-(5-(3-isopropyl-2-(2-methylpyridin-4-yl)-1H-indol-5-yl)-1,3,4-oxadiazol-2-yl)cyclohexan-1-amine]"
31,1.7,150,"CC(C)c1c(-c2ccnc3[nH]ncc23)[nH]c2ccc(-c3nnc(C[C@@H]4CCCN4)o3)cc12 [Example 104, (S)-2-(3-isopropyl-2-(1H-pyrazolo[3,4-b]pyridin-4-yl)-1H-indol-5-yl)-5-(pyrrolidin-2-ylmethyl)-1,3,4-oxadiazole]"
903,90,4580,"CCc1c(-c2ccc(OC)c(OC)c2)[nH]c2ccc(-c3noc([C@H]4CCC[C@@]4(C)N)n3)cc12 [Example 442, (1R,2S)-2-(3-(2-(3,4-dimethoxyphenyl)-3-ethyl-1H-indol-5-yl)-1,2,4-oxadiazol-5-yl)-1-methylcyclopentan-1-amine]"
192,20,2250,"COc1ccc(-c2[nH]c3ccc(-c4nc(C(=O)NC5CCN(C(C)C)CC5)cs4)cc3c2C(C)C)cc1OC [Example 147, 2-(2-(3,4-dimethoxyphenyl)-3-isopropyl-1H-indol-5-yl)-N-(1-isopropylpiperidin-4-yl)thiazole-4-carboxamide]"
539,7.3,2680,"CCc1c(-c2ccc(OC)c(OC)c2)[nH]c2ccc(-c3noc(CCNC)n3)cc12 [Example 460, 2-(3-(2-(3,4-dimethoxyphenyl)-3-ethyl-1H-indol-5-yl)-1,2,4-oxadiazol-5-yl)-N-methylethan-1-amine]"
45,5.8,790,"Cc1cc(-c2[nH]c3ccc(-c4ccnc(N5CCNCC5)c4)cc3c2C(C)C)ccn1 [Example 273, 3-isopropyl-2-(2-methylpyridin-4-yl)-5-(2-(piperazin-1-yl)pyridin-4-yl)-1H-indole]"
145,31,3300,"COc1ccc(-c2[nH]c3ccc(-c4cnc(N5CCN(CCC(C)O)CC5)nc4)cc3c2C(C)C)cc1OC (stereo not drawn) [Example 431, 4-(4-(5-(2-(3,4-dimethoxyphenyl)-3-isopropyl-1H-indol-5-yl)pyrimidin-2-yl)piperazin-1-yl)butan-2-ol]"
10,2.9,1840,"Cc1cc(-c2[nH]c3ccc(-c4sc(C5CCNCC5)nc4C)cc3c2C(C)C)ccn1 [Example 201, 5-(3-isopropyl-2-(2-methylpyridin-4-yl)-1H-indol-5-yl)-4-methyl-2-(piperidin-4-yl)thiazole]"
100,10,2090,"Cc1cc(-c2[nH]c3ccc(-c4nc(C(=O)NCC(C)(C)N5CCOCC5)co4)cc3c2C(C)C)cc(C)n1 [Example 289, 2-(2-(2,6-dimethylpyridin-4-yl)-3-isopropyl-1H-indol-5-yl)-N-(2-methyl-2-morpholinopropyl)oxazole-4-carboxamide]"
30,2,9730,"Cc1cc(-c2[nH]c3ccc(-c4ccc(N)nc4)cc3c2C(C)C)ccn1 [Example 237, 5-(3-isopropyl-2-(2-methylpyridin-4-yl)-1H-indol-5-yl)pyridin-2-amine]"
15,2.5,515,"Cc1cc(-c2[nH]c3ccc(-c4nnc(C(=O)NC5CCN(C(C)C)CC5)o4)cc3c2C(C)C)cc(C)n1 [Example 221, 5-(2-(2,6-dimethylpyridin-4-yl)-3-isopropyl-1H-indol-5-yl)-N-(1-isopropylpiperidin-4-yl)-1,3,4-oxadiazole-2-carboxamide]"
32,8.2,1260,"COc1ccc(-c2[nH]c3ccc(-c4nnc([C@@H]5CCCNC5)o4)cc3c2C(C)C)cc1OC [Example 55, (R)-2-(2-(3,4-dimethoxyphenyl)-3-isopropyl-1H-indol-5-yl)-5-(piperidin-3-yl)-1,3,4-oxadiazole]"

Structure (SMILES),IC50 (human TLR7) [nM],IC50 (human TLR8) [nM],IC50 (human TLR9) [nM]
"Cc1cc(-c2[nH]c3ccc(-c4nnc(C5CN6CCC5CC6)o4)cc3c2C(C)C)cc(C)n1 (stereo not drawn) [Example 297, 2-(2-(2,6-dimethylpyridin-4-yl)-3-isopropyl-1H-indol-5-yl)-5-(quinuclidin-3-yl)-1,3,4-oxadiazole]",6.2,3.1,111
"Cc1cc(-c2[nH]c3ccc(-c4nnc(C5CN6CCC5CC6)o4)cc3c2C(C)C)ccn1 (stereo not drawn) [Example 222, 2-(3-isopropyl-2-(2-methylpyridin-4-yl)-1H-indol-5-yl)-5-(quinuclidin-3-yl)-1,3,4-oxadiazole]",34,3.2,1240
